This is an account of results in PMC8533176, “1,5-Benzodiazepin-2(3H)-ones: In Vitro Evaluation as Antiparkinsonian Agents” (Antioxidants, 2021).

One assay concerns diffSH-SY5Y cells. The assay can be described thus: Neuroprotection in differentiated SH-SY5Y cells, MTT. It counts as cell-based, human. To be noted: H2O2 500 µM 24 h; 0, 2, 5, 10, 20, and 40 µM 24 h before.
Assay [1] has as its system SH-SY5Y cells. The assay can be described thus: Intracellular GSH recovery (monochlorobimane). The class given is cell-based, human. To be noted: H2O2 250 µM 24 h; 5, 10 and 20 µM. On the procedure:
For intracellular GSH determination studies, the method of Senft et al. was used. In summary, 3 × 10^3 SH-SY5Y cells were seeded in 96-well culture black clear bottom plates and after 24 h were treated with the test compound for an additional 24 h. Then, they were exposed to H2O2 for 24 h. After the incubation period, cells were loaded with 30 µM mClB and incubated at 37 °C for 30 min in a CO2 incubator as described by Sebastia et al.. At the end of the mClB incubation period, fluorescence was measured with a Varioskan microplate reader at λex = 405 nm and λem = 475. Results are expressed as the percentage of the fluorescence increase compared with that of the control. Experiments were performed four times in triplicate.

In assay [2] the test system is SH-SY5Y cells. The assay can be described thus: Lipid peroxidation (MDA, TBARS). The class given is cell-based, human. To be noted: 250 µM H2O2 24 h; 10 and 20 µM 24 h before. On the procedure:
For MDA studies, 2 × 10^5 SH-SY5Y cells were seeded in 6-well culture plates. After 24 h, cells were treated with the test compound and incubated for another 24 h. After compound treatment, cells were exposed to H2O2 for 24 h. Then, the cells were washed twice with cold 50 mM PBS buffer, detached, and lysed with lysis buffer, and TBA was added to each sample tube and vortexed. The reaction mixture was incubated at 96 °C for 60 min. After incubation, samples were cooled and centrifuged 10 min at 10^4 rpm. Samples were dispensed in 96-well culture black clear bottom plates, and fluorescence was measured with a Varioskan microplate reader at λex = 540 nm and λem = 590 nm wavelengths. Protein concentration was measured by the Bradford protein assay. The levels of MDA were expressed as nmol/mg protein. Experiments were performed four times in triplicate.

Assay [3] can be described thus: Ferric reducing antioxidant power (FRAP) assay. It counts as biochemical. Further details: FRAP Assay Trolox Equivalents: unit not given here. Here is the method: FRAP reagent was prepared by mixing 10 mL of 300 mM acetate buffer with 1 mL of 10 mM 2,4,6-tripyridyl-S-triazine (TPTZ) in HCl 40 mM and 1mL of FeCl3·6H2O 20 mM. […] Trolox was used as assay control.

In assay [4] the test system is SH-SY5Y cells. The assay can be described thus: Neuroprotection in the MPP+ neurotoxicity-induced model, MTT. To be noted: MPP+ 700 µM 48 h; compounds 24 h before. The class given is cell-based, human.
For assay [5], the system named is SH-SY5Y cells. The assay can be described thus: Neuroprotection against H2O2-induced oxidative stress, MTT. To be noted: H2O2 250 µM 24 h; compounds 5-50 µM 24 h before; Figure 8.
For assay [6], the system named is SH-SY5Y cells. The assay can be described thus: Mitochondrial superoxide levels (MitoSOX). It counts as cell-based, human. To be noted: H2O2 250 µM; compounds 24 h before. On the procedure:
Mitochondrial superoxide levels were measured with MitoSOX red (3,8-phenanthridinediamine, 5-(60-triphenylphosphoniumhexyl)-5,6-dihydro-6-phenyl) from Molecular Probes (Thermo Fisher Scientific, 29851Willow Creek Road, Eugene, OR, USA). After SH-SY5Y cell treatment in 96-well culture black clear bottom plates, the medium was removed and cells were washed with PBS and afterward, MitoSOX red (final concentration of 5 µM) in 200 µL of PBS was added and incubated for 20 min at 37 °C. After incubation, the cells were washed with warm PBS buffer, and fluorescence was measured at 510 nm excitation/640 nm emission wavelengths in a Varioskan microplate reader (Thermo Fisher Scientific, Vantaa, Finland).

The subject of assay [7] is SH-SY5Y cells. Put plainly: Neuroprotection in the 6-OHD neurotoxicity-induced model, MTT. The class given is cell-based, human. To be noted: 6-OHD 250 µM 48 h; compounds 24 h before.
Assay [8] has as its system SH-SY5Y cells. Put plainly: Mitochondrial membrane potential (JC-1). It counts as cell-based, human. To be noted: 400 µM H2O2 4 h; compounds 24 h before at different concentrations. Here is the method:
The fluorescent dye 5,5′,6,6′-tetrachloro-1,1′,3,3′-tetraethylbenzimidazolylcarbocyanine iodide (JC-1) was used for measuring MMP [89]. A decrease in fluorescence intensity represents mitochondrial membrane depolarization. For fluorescence ratio detection under oxidative stress conditions, 96-well culture black clear bottom plates were seeded with 3 × 10^3 SH-SY5Y cells, and after 24-h incubation, they were treated with the test compound and left out for 24 h. Then, the cells were exposed to different H2O2 concentrations for 4 h. After the incubation period, the cells were washed twice with Hanks buffer and then stained with 5 µM JC-1 in culture media in the dark in a CO2 incubator at 37 °C for 20 min. At the end of the dye incubation period, cells were washed three times with Hanks buffer, and 200 µL of fresh buffer was added. Cells were analyzed with a Varioskan microplate reader. J-aggregate red fluorescence intensity was measured at λex = 535 nm and λem = 595 nm, while λem = 485 nm and λem = 535 nm was used for J-monomer green fluorescence. Results were expressed as the ratio of fluorescence intensity of J-aggregates to J-monomers. All the experiments were performed three times in quadruplicate for each compound concentration.

Assay [9] deals with SH-SY5Y cells. The assay can be described thus: Cytotoxicity, MTT assay, SH-SY5Y. The class given is cell-based. To be noted: Homo sapiens, MTT, cytotoxicity, read-out: SH-SY5Y IC50. A digest of the protocol:
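Cells treated with 5–200 µM compound (DMSO vehicle, four replicates) after overnight attachment. Viability read by MTT reduction (2 h, 37 °C, dark; formazan in DMSO, A570) relative to vehicle controls; IC50 from dose–response regression.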

Consider `O=C1CC(c2ccccc2)=Nc2ccccc2N1` [Compound 18, 4-Phenyl-1H-1,5-benzodiazepin-2(3H)-one], for which the “Neuroprotection, diffSH-SY5Y cell viability (MTT)” value in the assay with diffSH-SY5Y cells is given as “dose-dependent neuroprotectant activity”. Further, the “intracellular GSH recovery” value in the assay with SH-SY5Y cells [1] is 18–20%. The “Effect on MDA levels” value with SH-SY5Y cells [2] was “significantly prevented”. For the same compound, the “FRAP Assay Trolox Equivalents” value in assay [3] stood at 0.89. Moreover, the “FRAP Assay Antioxidant Capacity (%) at 100 uM” value in assay [3] (compound at 100 uM) is reported as 45.7%. In assay [3] (compound at 200 uM), the “FRAP Assay Antioxidant Capacity (%) at 200 uM” value stood at 65.1%. For the same compound, in the assay with SH-SY5Y cells [4], the “Neuroprotection, cell viability (MTT), MPP+ model” value was “small significant neuroprotection at 1 and 2 µM”. For the same compound, the “Neuroprotection effect, cell viability (MTT)” value in the assay on SH-SY5Y cells [5] was “significantly improved”. For the same compound, the “Reduction in mitochondrial superoxide levels” value with SH-SY5Y cells [6] is “reduce mitochondrial superoxide levels in a dose-dependent manner”. The “Neuroprotection, cell viability (MTT), 6-OHD model” value with SH-SY5Y cells [7] is recorded as “significant neuroprotection”. Moreover, the MMP recovery with SH-SY5Y cells [8] is reported as 10–25%. The IC50 with SH-SY5Y cells [9] is more than 250 µM.
